Experimental data as given in PMC11347070 (Current Research in Toxicology, 2024).

Key:
[1] = ref FDA, KEPPRA® (levetiracetam), n.d.; cited from earlier work
[2] = test system: zebrafish embryos and larvae; conditions: exposed to 500 µM ECA; 120 hpf
[3] = test system: zebrafish embryos and larvae; test: Zebrafish embryo developmental toxicity assay; conditions: for BA heart / Coagulation/dead / Curved fin left / Curved fin right / Curved tail / Edema head / Edema pericard / Edema yolk / No hatching / Tissue deviation tail / Tot. malformed (excl. dead) / Tot. malformed (incl. dead) / Deviation eye / Elbow tail: 120 hpf

Compound: CCC(C(=O)O)N1CCCC1=O (stereo not drawn) [ECA, etiracetam carboxylic acid]
- human metabolite of LTC, share of the administered dose [1]: 24 % of the administered dose
- concentration of ECA in larvae [2]: no concentrations above the LOD could be detected
- uptake of ECA [2]: no uptake of ECA could be observed
- BA heart ([3]; ECA 1 µM, replicate 1): 0/20
- Coagulation/dead ([3]; ECA 1 µM, replicate 1): 0/20
- Curved fin left ([3]; ECA 1 µM, replicate 1): 0/20
- Curved fin right ([3]; ECA 1 µM, replicate 1): 0/20
- Curved tail ([3]; ECA 1 µM, replicate 1): 0/20
- Edema head ([3]; ECA 1 µM, replicate 1): 0/20
- Edema pericard ([3]; ECA 1 µM, replicate 1): 0/20
- Edema yolk ([3]; ECA 1 µM, replicate 1): 0/20
- No hatching ([3]; ECA 1 µM, replicate 1): 0/20
- Tissue deviation tail ([3]; ECA 1 µM, replicate 1): 0/20
- Tot. malformed (excl. dead) ([3]; ECA 1 µM, replicate 1): 0/20
- Tot. malformed (incl. dead) ([3]; ECA 1 µM, replicate 1): 0/20
- BA heart ([3]; ECA 1 µM, replicate 2): 0/19
- Coagulation/dead ([3]; ECA 1 µM, replicate 2): 1/20
- Curved fin left ([3]; ECA 1 µM, replicate 2): 0/19
- Curved fin right ([3]; ECA 1 µM, replicate 2): 0/19
- Curved tail ([3]; ECA 1 µM, replicate 2): 0/19
- Edema head ([3]; ECA 1 µM, replicate 2): 0/19
- Edema pericard ([3]; ECA 1 µM, replicate 2): 0/19
- Edema yolk ([3]; ECA 1 µM, replicate 2): 0/19
- No hatching ([3]; ECA 1 µM, replicate 2): 0/19
- Tissue deviation tail ([3]; ECA 1 µM, replicate 2): 0/19
- Tot. malformed (excl. dead) ([3]; ECA 1 µM, replicate 2): 0/19
- Tot. malformed (incl. dead) ([3]; ECA 1 µM, replicate 2): 1/20
- BA heart ([3]; ECA 10 µM, replicate 1): 0/18
- Coagulation/dead ([3]; ECA 10 µM, replicate 1): 2/20
- Curved fin left ([3]; ECA 10 µM, replicate 1): 0/18
- Curved fin right ([3]; ECA 10 µM, replicate 1): 0/18
- Curved tail ([3]; ECA 10 µM, replicate 1): 2/18
- Edema head ([3]; ECA 10 µM, replicate 1): 0/18
- Edema pericard ([3]; ECA 10 µM, replicate 1): 0/18
- Edema yolk ([3]; ECA 10 µM, replicate 1): 0/18
- No hatching ([3]; ECA 10 µM, replicate 1): 1/18
- Tissue deviation tail ([3]; ECA 10 µM, replicate 1): 0/18
- Tot. malformed (excl. dead) ([3]; ECA 10 µM, replicate 1): 2/18
- Tot. malformed (incl. dead) ([3]; ECA 10 µM, replicate 1): 4/20
- BA heart ([3]; ECA 10 µM, replicate 2): 0/20
- Coagulation/dead ([3]; ECA 10 µM, replicate 2): 0/20
- Curved fin left ([3]; ECA 10 µM, replicate 2): 0/20
- Curved fin right ([3]; ECA 10 µM, replicate 2): 0/20
- Curved tail ([3]; ECA 10 µM, replicate 2): 1/20
- Edema head ([3]; ECA 10 µM, replicate 2): 0/20
- Edema pericard ([3]; ECA 10 µM, replicate 2): 0/20
- Edema yolk ([3]; ECA 10 µM, replicate 2): 0/20
- No hatching ([3]; ECA 10 µM, replicate 2): 0/20
- Tissue deviation tail ([3]; ECA 10 µM, replicate 2): 0/20
- Tot. malformed (excl. dead) ([3]; ECA 10 µM, replicate 2): 1/20
- Tot. malformed (incl. dead) ([3]; ECA 10 µM, replicate 2): 1/20
- BA heart ([3]; ECA 100 µM, replicate 1): 0/18
- Coagulation/dead ([3]; ECA 100 µM, replicate 1): 2/20
- Curved fin left ([3]; ECA 100 µM, replicate 1): 0/18
- Curved fin right ([3]; ECA 100 µM, replicate 1): 0/18
- Curved tail ([3]; ECA 100 µM, replicate 1): 0/18
- Edema head ([3]; ECA 100 µM, replicate 1): 0/18
- Edema pericard ([3]; ECA 100 µM, replicate 1): 1/18
- Edema yolk ([3]; ECA 100 µM, replicate 1): 0/18
- No hatching ([3]; ECA 100 µM, replicate 1): 0/18
- Tissue deviation tail ([3]; ECA 100 µM, replicate 1): 1/18
- Tot. malformed (excl. dead) ([3]; ECA 100 µM, replicate 1): 1/18
- Tot. malformed (incl. dead) ([3]; ECA 100 µM, replicate 1): 3/20
- BA heart ([3]; ECA 100 µM, replicate 2): 1/20
- Coagulation/dead ([3]; ECA 100 µM, replicate 2): 0/20
- Curved fin left ([3]; ECA 100 µM, replicate 2): 1/20
- Curved fin right ([3]; ECA 100 µM, replicate 2): 1/20
- Curved tail ([3]; ECA 100 µM, replicate 2): 1/20
- Edema head ([3]; ECA 100 µM, replicate 2): 1/20
- Edema pericard ([3]; ECA 100 µM, replicate 2): 2/20
- Edema yolk ([3]; ECA 100 µM, replicate 2): 1/20
- No hatching ([3]; ECA 100 µM, replicate 2): 0/20
- Tissue deviation tail ([3]; ECA 100 µM, replicate 2): 1/20
- Tot. malformed (excl. dead) ([3]; ECA 100 µM, replicate 2): 2/20
- Tot. malformed (incl. dead) ([3]; ECA 100 µM, replicate 2): 2/20
- Coagulation/dead ([3]; ECA 250 µM, replicate 1): 0/20
- Curved tail ([3]; ECA 250 µM, replicate 1): 0/20
- Deviation eye ([3]; ECA 250 µM, replicate 1): 0/20
- Elbow tail ([3]; ECA 250 µM, replicate 1): 1/20
- Tissue deviation tail ([3]; ECA 250 µM, replicate 1): 1/20
- Tot. malformed (excl. dead) ([3]; ECA 250 µM, replicate 1): 2/20
- Tot. malformed (incl. dead) ([3]; ECA 250 µM, replicate 1): 2/20
- Coagulation/dead ([3]; ECA 250 µM, replicate 2): 0/20
- Curved tail ([3]; ECA 250 µM, replicate 2): 0/20
- Deviation eye ([3]; ECA 250 µM, replicate 2): 0/20
- Elbow tail ([3]; ECA 250 µM, replicate 2): 0/20
- Tissue deviation tail ([3]; ECA 250 µM, replicate 2): 0/20
- Tot. malformed (excl. dead) ([3]; ECA 250 µM, replicate 2): 0/20
- Tot. malformed (incl. dead) ([3]; ECA 250 µM, replicate 2): 0/20
- Coagulation/dead ([3]; ECA 500 µM, replicate 1): 0/20
- Curved tail ([3]; ECA 500 µM, replicate 1): 1/20
- Deviation eye ([3]; ECA 500 µM, replicate 1): 1/20
- Elbow tail ([3]; ECA 500 µM, replicate 1): 0/20
- Tissue deviation tail ([3]; ECA 500 µM, replicate 1): 1/20
- Tot. malformed (excl. dead) ([3]; ECA 500 µM, replicate 1): 2/20
- Tot. malformed (incl. dead) ([3]; ECA 500 µM, replicate 1): 2/20
- Coagulation/dead ([3]; ECA 500 µM, replicate 2): 0/20
- Curved tail ([3]; ECA 500 µM, replicate 2): 0/20
- Deviation eye ([3]; ECA 500 µM, replicate 2): 0/20
- Elbow tail ([3]; ECA 500 µM, replicate 2): 0/20
- Tissue deviation tail ([3]; ECA 500 µM, replicate 2): 1/20
- Tot. malformed (excl. dead) ([3]; ECA 500 µM, replicate 2): 1/20
- Tot. malformed (incl. dead) ([3]; ECA 500 µM, replicate 2): 1/20
- differences between test groups and embryo medium control group ([3]; all test concentrations, 24 to 120 hpf, Fisher Exact test): no statistically significant differences
- teratogenicity in zebrafish larvae ([3]; concentrations up to 10,000 µM LTC and 500 µM ECA, likely due to limited uptake or lack of uptake): non-teratogenic
